Data set [1] deals with HCT-116. In words: Induction of apoptosis in p53 +/+ human HCT116 cells assessed as apoptotic cells at 13.2 uM incubated for 24 hrs by TUNEL analysis relative to p53 -/- human HCT116 cells. Type of data set: functional.
Data set [2] deals with HCT-116. In words: Cytotoxicity against MMS-induced p53 -/- human HCT116 cells assessed as reduction in clonogenic survival at 13.7 uM incubated for 24 hrs by WST-1 assay relative to control. Type of data set: functional. For orientation: Tetrazolium assays rely on reduction of a dye to a coloured formazan, in cell work by metabolically active cells.
Data set [3] deals with HCT-116. In words: Cytotoxicity against p53 -/- human HCT116 cells assessed as growth inhibition incubated for 24 hrs by WST-1 assay. Format: functional. Conditions: HCT-116, 24 h, read-out: LD50 (the source's name).
The nature of data set [4]: Cytotoxicity against human dermal fibroblasts. Conditions: hdf.
In data set [5] the test system is HCT-116. In words: Cytotoxicity against p53 -/- human HCT116 cells assessed as growth inhibition at 200 uM incubated for 24 hrs by WST-1 assay. Format: functional, cell-based.
The target of the next data set is T1, DNA polymerase kappa (Homo sapiens, UniProt Q9UBT6).
T1 sequence (Q9UBT6 whole entry): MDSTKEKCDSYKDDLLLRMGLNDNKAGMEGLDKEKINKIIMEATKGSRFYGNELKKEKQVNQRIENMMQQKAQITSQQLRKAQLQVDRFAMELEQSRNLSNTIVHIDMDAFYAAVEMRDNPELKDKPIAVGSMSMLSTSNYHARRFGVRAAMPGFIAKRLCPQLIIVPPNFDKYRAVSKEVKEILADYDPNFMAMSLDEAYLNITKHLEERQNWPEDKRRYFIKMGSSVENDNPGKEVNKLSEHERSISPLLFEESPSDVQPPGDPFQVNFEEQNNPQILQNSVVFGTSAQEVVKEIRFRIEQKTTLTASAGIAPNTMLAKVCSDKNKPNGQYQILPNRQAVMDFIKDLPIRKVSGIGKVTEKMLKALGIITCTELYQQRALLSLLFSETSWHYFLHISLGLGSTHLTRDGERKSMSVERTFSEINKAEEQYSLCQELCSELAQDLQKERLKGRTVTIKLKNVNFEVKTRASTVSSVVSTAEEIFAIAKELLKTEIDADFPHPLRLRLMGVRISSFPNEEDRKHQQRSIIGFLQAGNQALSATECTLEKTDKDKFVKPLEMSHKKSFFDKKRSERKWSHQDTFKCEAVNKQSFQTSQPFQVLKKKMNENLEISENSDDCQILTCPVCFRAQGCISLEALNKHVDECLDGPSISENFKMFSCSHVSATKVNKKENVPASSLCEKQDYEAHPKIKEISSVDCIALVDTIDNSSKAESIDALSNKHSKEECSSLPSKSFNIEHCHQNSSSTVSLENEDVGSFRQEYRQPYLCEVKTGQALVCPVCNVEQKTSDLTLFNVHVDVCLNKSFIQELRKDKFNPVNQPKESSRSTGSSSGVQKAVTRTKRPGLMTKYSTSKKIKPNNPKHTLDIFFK
In words: Inhibition of human DNA polymerase kappa using poly(dA)/oligo(dT)18 (A/T, 2/1)/dTTP DNA template-primer substrate measured at 37 degC for 60 mins.

The target in a further data set is T2, DNA polymerase iota (Homo sapiens, UniProt Q9UNA4).
T2 sequence (Q9UNA4 whole entry): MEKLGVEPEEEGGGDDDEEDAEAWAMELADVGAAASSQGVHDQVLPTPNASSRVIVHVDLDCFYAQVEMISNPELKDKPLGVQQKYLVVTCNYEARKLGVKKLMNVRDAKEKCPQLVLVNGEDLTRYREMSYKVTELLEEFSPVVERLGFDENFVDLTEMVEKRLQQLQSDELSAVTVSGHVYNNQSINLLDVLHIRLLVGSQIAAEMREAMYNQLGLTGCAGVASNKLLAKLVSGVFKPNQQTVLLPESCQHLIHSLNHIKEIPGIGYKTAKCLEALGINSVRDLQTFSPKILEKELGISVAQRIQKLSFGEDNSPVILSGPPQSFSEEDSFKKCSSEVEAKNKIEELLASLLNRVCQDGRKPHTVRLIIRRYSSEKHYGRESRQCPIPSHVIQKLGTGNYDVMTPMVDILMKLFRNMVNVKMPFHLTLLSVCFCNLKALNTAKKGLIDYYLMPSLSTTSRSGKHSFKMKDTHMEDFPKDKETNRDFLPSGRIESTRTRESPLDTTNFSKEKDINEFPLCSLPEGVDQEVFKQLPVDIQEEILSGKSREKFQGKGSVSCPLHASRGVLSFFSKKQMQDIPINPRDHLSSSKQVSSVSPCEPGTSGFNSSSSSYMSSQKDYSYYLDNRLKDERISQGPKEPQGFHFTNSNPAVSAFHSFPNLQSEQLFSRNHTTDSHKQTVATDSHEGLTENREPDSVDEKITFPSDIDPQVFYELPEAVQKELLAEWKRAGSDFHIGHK
In words: Inhibition of human DNA polymerase iota using poly(dA)/oligo(dT)18 (A/T, 2/1)/dTTP DNA template-primer substrate measured at 37 degC for 60 mins.

Data set [6] concerns the target DNA nucleotidylexotransferase (Bos taurus, UniProt P06526). In words: Inhibition of calf TdT polymerase measured at 37 degC for 60 mins.
The target in the next data set is T3, DNA polymerase lambda (Homo sapiens, UniProt Q9UGP5).
T3 sequence (Q9UGP5 whole entry): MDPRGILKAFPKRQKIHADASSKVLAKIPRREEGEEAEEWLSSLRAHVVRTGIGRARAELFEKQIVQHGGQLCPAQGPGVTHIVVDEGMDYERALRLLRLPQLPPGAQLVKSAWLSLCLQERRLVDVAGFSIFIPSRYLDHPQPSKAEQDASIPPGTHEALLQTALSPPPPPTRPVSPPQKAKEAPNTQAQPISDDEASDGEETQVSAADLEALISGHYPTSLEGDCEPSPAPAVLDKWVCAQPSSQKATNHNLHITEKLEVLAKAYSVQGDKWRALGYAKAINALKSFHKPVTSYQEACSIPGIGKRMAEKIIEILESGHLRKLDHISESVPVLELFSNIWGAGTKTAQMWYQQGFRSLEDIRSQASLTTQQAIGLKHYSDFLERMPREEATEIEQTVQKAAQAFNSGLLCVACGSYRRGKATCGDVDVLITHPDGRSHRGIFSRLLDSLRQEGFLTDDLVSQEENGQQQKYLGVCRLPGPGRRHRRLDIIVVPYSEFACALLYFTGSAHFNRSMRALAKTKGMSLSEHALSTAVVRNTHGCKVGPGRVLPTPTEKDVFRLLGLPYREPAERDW
In words: Inhibition of human DNA polymerase lambda using poly(dA)/oligo(dT)18 (A/T, 2/1)/dTTP DNA template-primer substrate measured at 37 degC for 60 mins.

pIC50: −log10 of the molar value. Active and inactive are the calls of the source. The rule behind the calls is not given here.

The pIC50 is the negative decadic logarithm of the IC50, by convention in mol/L. Read a high pIC50 as a small IC50.

Chain of DNA nucleotidylexotransferase (P06526 whole entry): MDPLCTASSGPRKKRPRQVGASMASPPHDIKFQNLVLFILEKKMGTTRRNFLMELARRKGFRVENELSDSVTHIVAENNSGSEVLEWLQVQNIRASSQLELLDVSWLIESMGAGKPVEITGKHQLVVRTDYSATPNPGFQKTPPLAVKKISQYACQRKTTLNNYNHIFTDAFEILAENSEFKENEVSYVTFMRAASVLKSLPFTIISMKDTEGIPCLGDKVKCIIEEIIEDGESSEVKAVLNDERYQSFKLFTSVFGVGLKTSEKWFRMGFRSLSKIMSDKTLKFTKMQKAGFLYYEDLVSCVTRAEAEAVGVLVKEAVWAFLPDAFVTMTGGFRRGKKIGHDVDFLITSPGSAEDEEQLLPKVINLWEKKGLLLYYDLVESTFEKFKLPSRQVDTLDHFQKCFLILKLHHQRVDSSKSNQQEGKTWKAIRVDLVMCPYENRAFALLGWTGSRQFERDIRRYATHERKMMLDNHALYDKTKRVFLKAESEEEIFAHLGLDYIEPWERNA

For the compound `CC[C@H](C)[C@H](NC(=O)[C@H](Cc1ccc(O)cc1)NC(=O)OC(C)(C)C)C(=O)Nc1cccc2ccccc12`, the “fold change (FC)” value in the data set with HCT-116 [1] turned out to be 3; with HCT-116 [2] it was 25. Further, the CC50 in the data set on HCT-116 [3] turned out to be 13.7 µM. In [4], the Activity result is on record as “Non-toxic”. The “growth inhibition (GI)” value in the data set with HCT-116 [5] is “Active”. Moreover, the pIC50 (against DNA polymerase kappa; against DNA polymerase iota; in data set [6]; on DNA polymerase lambda) was less than 3.70 throughout.

For the origin of these results see ChEMBL document CHEMBL2331167, “Inhibitory effect of novel somatostatin peptide analogues on human cancer cell growth based on the selective inhibition of DNA polymerase β” (Bioorg Med Chem, 2013).
